Data as given in patent US8487121B2, “Chromane derivatives as TRPV3 modulators” (Glenmark Pharmaceuticals S.A., priority 2007, dated 2013).

Molecular target: T1, Human TRPV3 (Homo sapiens, UniProt Q8NET8)
T1 construct: expressed in transfected cells; host or cells: CHO cells (G-418 selected)
T1 sequence (Q8NET8 1-790): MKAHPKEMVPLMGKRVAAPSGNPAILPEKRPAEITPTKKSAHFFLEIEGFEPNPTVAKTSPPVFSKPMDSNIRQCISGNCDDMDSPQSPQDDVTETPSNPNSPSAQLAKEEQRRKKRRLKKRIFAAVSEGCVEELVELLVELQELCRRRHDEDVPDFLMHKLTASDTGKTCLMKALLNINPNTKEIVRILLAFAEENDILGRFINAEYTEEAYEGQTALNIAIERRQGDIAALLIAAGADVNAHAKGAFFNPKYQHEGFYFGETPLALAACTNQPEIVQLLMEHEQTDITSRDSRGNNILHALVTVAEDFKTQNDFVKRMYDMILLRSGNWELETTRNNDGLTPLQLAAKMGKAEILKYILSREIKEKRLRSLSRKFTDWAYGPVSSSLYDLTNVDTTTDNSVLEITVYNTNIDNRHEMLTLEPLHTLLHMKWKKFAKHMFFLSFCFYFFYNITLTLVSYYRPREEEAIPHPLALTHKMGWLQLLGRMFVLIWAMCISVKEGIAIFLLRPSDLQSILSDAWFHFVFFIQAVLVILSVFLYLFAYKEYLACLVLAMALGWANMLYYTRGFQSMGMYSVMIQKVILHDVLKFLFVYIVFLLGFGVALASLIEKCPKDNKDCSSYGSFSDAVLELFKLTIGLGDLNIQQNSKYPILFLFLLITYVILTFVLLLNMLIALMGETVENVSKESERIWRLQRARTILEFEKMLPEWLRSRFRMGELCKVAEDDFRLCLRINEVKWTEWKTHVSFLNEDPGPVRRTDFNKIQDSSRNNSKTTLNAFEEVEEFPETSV
Experiment: 45Calcium uptake assay: inhibition of 2-APB induced cellular uptake of radioactive calcium
Type: cell-based
Conditions: human TRPV3 expressing CHO cells, 2-APB 500 μM
Method in brief: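 CHO cells stably expressing human TRPV3 (~50,000/well) were preincubated with compounds for 10 min in medium containing 0.1% BSA, 1.8 mM CaCl2 and 0.5% DMSO. Then 500 μM 2-APB and 5 μCi/ml 45Ca2+ were added for 4 min. Lysate radioactivity was expressed as % of maximal uninhibited response, and IC50 came from nonlinear regression, alongside % inhibition at 1.0 and 10.0 μM.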

## COc1cccc(CCCC(=O)NC2CCSc3ccc(Cl)cc32)c1OC1CCCC1 (centres unmarked) [Example 104, N-(6-chloro-3,4-dihydro-2H-thiochromen-4-yl)-4-(2-cyclopentyloxy-3-methoxyphenyl)-butanamide]
1.0 μM compound, read-out: Percentage inhibition at 1.0 μM
  inhibition at 1 µM: 51.3%
10.0 μM compound, read-out: Percentage inhibition at 10.0 μM
  inhibition at 10 µM: 92.5%
